According to PubChem BioAssay (NCI):
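Here, GI50 denotes the concentration required for 50% inhibition of growth. TGI: concentration producing complete growth inhibition.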

Key:
Test in all cases: growth of human tumour cells (NCI), 384-well format
786-0 renal = test system: 786-0 renal
A498 renal = test system: A498 renal
A549 NSCLC = test system: A549 NSCLC
ACHN renal = test system: ACHN renal
BT-549 breast = test system: BT-549 breast
CAKI-1 renal = test system: CAKI-1 renal
CCRF-CEM leukemia = test system: CCRF-CEM leukemia
COLO 205 colon = test system: COLO 205 colon
DU-145 prostate = test system: DU-145 prostate
EKVX NSCLC = test system: EKVX NSCLC
HCC-2998 colon = test system: HCC-2998 colon
HCT-116 colon = test system: HCT-116 colon
HCT-15 colon = test system: HCT-15 colon
HL-60(TB) leukemia = test system: HL-60(TB) leukemia
HOP-62 NSCLC = test system: HOP-62 NSCLC
HOP-92 NSCLC = test system: HOP-92 NSCLC
HS 578T breast = test system: HS 578T breast
HT29 colon = test system: HT29 colon
IGROV1 ovarian = test system: IGROV1 ovarian
K-562 leukemia = test system: K-562 leukemia
KM12 colon = test system: KM12 colon
LOX IMVI melanoma = test system: LOX IMVI melanoma
M14 melanoma = test system: M14 melanoma
MALME-3M melanoma = test system: MALME-3M melanoma
MCF7 breast = test system: MCF7 breast
MDA-MB-435 melanoma = test system: MDA-MB-435 melanoma
MDA-MB-468 breast = test system: MDA-MB-468 breast
MOLT-4 leukemia = test system: MOLT-4 leukemia
NCI-H226 lung = test system: NCI-H226 lung
NCI-H23 lung = test system: NCI-H23 lung
NCI-H322M lung = test system: NCI-H322M lung
NCI-H460 NSCLC = test system: NCI-H460 NSCLC
NCI-H522 lung = test system: NCI-H522 lung
NCI/ADR-RES ovarian = test system: NCI/ADR-RES ovarian
OVCAR-3 ovarian = test system: OVCAR-3 ovarian
OVCAR-4 ovarian = test system: OVCAR-4 ovarian
OVCAR-8 ovarian = test system: OVCAR-8 ovarian
PC-3 prostate = test system: PC-3 prostate
RPMI-8226 leukemia = test system: RPMI-8226 leukemia
RXF 393 renal = test system: RXF 393 renal
SF-268 CNS = test system: SF-268 CNS
SF-295 CNS = test system: SF-295 CNS
SF-539 CNS = test system: SF-539 CNS
SK-MEL-2 melanoma = test system: SK-MEL-2 melanoma
SK-MEL-28 melanoma = test system: SK-MEL-28 melanoma
SK-MEL-5 melanoma = test system: SK-MEL-5 melanoma
SK-OV-3 ovarian = test system: SK-OV-3 ovarian
SN12C renal = test system: SN12C renal
SNB-19 CNS = test system: SNB-19 CNS
SNB-75 CNS = test system: SNB-75 CNS
SW-620 colon = test system: SW-620 colon
TK-10 renal = test system: TK-10 renal
U251 glioblastoma = test system: U251 glioblastoma
UACC-257 melanoma = test system: UACC-257 melanoma
UACC-62 melanoma = test system: UACC-62 melanoma

CC/C(=C(\c1ccccc1)c1ccc(OCCNC)cc1)c1ccccc1
GI50 ([…]-0 renal): 1.79 µM
TGI (786-0 renal): 3.2 µM
GI50 (A498 renal): 1.72 µM
TGI (A498 renal): 3.1 µM
GI50 (A549 NSCLC): 1.71 µM
TGI (A549 NSCLC): 3.16 µM
GI50 (ACHN renal): 1.85 µM
TGI (ACHN renal): 3.3 µM
GI50 (BT-549 breast): 1.82 µM
TGI (BT-549 breast): 3.26 µM
GI50 (CAKI-1 renal): 1.53 µM
TGI (CAKI-1 renal): 2.92 µM
GI50 (CCRF-CEM leukemia): 1.73 µM
TGI (CCRF-CEM leukemia): 3.13 µM
GI50 (COLO 205 colon): 1.94 µM
TGI (COLO 205 colon): 3.4 µM
GI50 (DU-145 prostate): 2.26 µM
TGI (DU-145 prostate): 4.24 µM
GI50 (EKVX NSCLC): 1.92 µM
TGI (EKVX NSCLC): 3.67 µM
GI50 (HCC-2998 colon): 1.66 µM
TGI (HCC-2998 colon): 3.04 µM
GI50 (HCT-116 colon): 1.97 µM
TGI (HCT-116 colon): 3.45 µM
GI50 (HCT-15 colon): 1.82 µM
TGI (HCT-15 colon): 3.27 µM
GI50 (HL-60(TB) leukemia): 1.58 µM
TGI (HL-60(TB) leukemia): 2.94 µM
GI50 (HOP-62 NSCLC): 2.35 µM
TGI (HOP-62 NSCLC): 3.83 µM
GI50 (HOP-92 NSCLC): 2.05 µM
TGI (HOP-92 NSCLC): 3.51 µM
GI50 (HS 578T breast): 1.9 µM
TGI (HS 578T breast): 3.32 µM
GI50 (HT29 colon): 1.77 µM
TGI (HT29 colon): 3.19 µM
GI50 (IGROV1 ovarian): 1.86 µM
TGI (IGROV1 ovarian): 3.35 µM
GI50 (K-562 leukemia): 1.83 µM
TGI (K-562 leukemia): 3.25 µM
GI50 (KM12 colon): 1.99 µM
TGI (KM12 colon): 3.47 µM
GI50 (LOX IMVI melanoma): 1.79 µM
TGI (LOX IMVI melanoma): 3.21 µM
GI50 (M14 melanoma): 2.07 µM
TGI (M14 melanoma): 3.52 µM
GI50 (MALME-3M melanoma): 2.15 µM
TGI (MALME-3M melanoma): 3.61 µM
GI50 (MCF7 breast): 1.2 µM
TGI (MCF7 breast): 2.61 µM
GI50 (MDA-MB-435 melanoma): 2.06 µM
TGI (MDA-MB-435 melanoma): 3.5 µM
GI50 (MDA-MB-468 breast): 2.39 µM
TGI (MDA-MB-468 breast): 3.87 µM
GI50 (MOLT-4 leukemia): 1.49 µM
TGI (MOLT-4 leukemia): 2.82 µM
GI50 (NCI-H226 lung): 2.15 µM
TGI (NCI-H226 lung): 4.65 µM
GI50 (NCI-H23 lung): 2.13 µM
TGI (NCI-H23 lung): 3.67 µM
GI50 (NCI-H322M lung): 2.16 µM
TGI (NCI-H322M lung): 3.7 µM
GI50 (NCI-H460 NSCLC): 1.98 µM
TGI (NCI-H460 NSCLC): 3.51 µM
GI50 (NCI-H522 lung): 1.93 µM
TGI (NCI-H522 lung): 3.36 µM
GI50 (NCI/ADR-RES ovarian): 2.2 µM
TGI (NCI/ADR-RES ovarian): 3.91 µM
GI50 (OVCAR-3 ovarian): 1.92 µM
TGI (OVCAR-3 ovarian): 3.4 µM
GI50 (OVCAR-4 ovarian): 2.1 µM
TGI (OVCAR-4 ovarian): 3.68 µM
GI50 (OVCAR-8 ovarian): 1.86 µM
TGI (OVCAR-8 ovarian): 3.32 µM
GI50 (PC-3 prostate): 1.97 µM
TGI (PC-3 prostate): 3.48 µM
GI50 (RPMI-8226 leukemia): 2.29 µM
TGI (RPMI-8226 leukemia): 3.76 µM
GI50 (RXF 393 renal): 2.02 µM
TGI (RXF 393 renal): 3.47 µM
GI50 (SF-268 CNS): 2.36 µM
TGI (SF-268 CNS): 3.93 µM
GI50 (SF-295 CNS): 1.88 µM
TGI (SF-295 CNS): 3.3 µM
GI50 (SF-539 CNS): 2.1 µM
TGI (SF-539 CNS): 3.56 µM
GI50 (SK-MEL-2 melanoma): 1.86 µM
TGI (SK-MEL-2 melanoma): 3.28 µM
GI50 (SK-MEL-28 melanoma): 2.07 µM
TGI (SK-MEL-28 melanoma): 3.52 µM
GI50 (SK-MEL-5 melanoma): 1.69 µM
TGI (SK-MEL-5 melanoma): 3.08 µM
GI50 (SK-OV-3 ovarian): 1.87 µM
TGI (SK-OV-3 ovarian): 3.3 µM
GI50 (SN12C renal): 1.85 µM
TGI (SN12C renal): 3.42 µM
GI50 (SNB-19 CNS): 2.14 µM
TGI (SNB-19 CNS): 3.64 µM
GI50 (SNB-75 CNS): 2.06 µM
TGI (SNB-75 CNS): 3.55 µM
GI50 (SW-620 colon): 1.98 µM
TGI (SW-620 colon): 3.46 µM
GI50 (TK-10 renal): 2.12 µM
TGI (TK-10 renal): 4.07 µM
GI50 (U251 glioblastoma): 2.16 µM
TGI (U251 glioblastoma): 3.64 µM
GI50 (UACC-257 melanoma): 2.3 µM
TGI (UACC-257 melanoma): 3.77 µM
GI50 (UACC-62 melanoma): 2.16 µM
TGI (UACC-62 melanoma): 3.63 µM
